Reference: patent US6911432B2, “Drugs, foods or drinks with the use of algae-derived physiologically active substances” (priority 1997, dated 2005)

System: RAW 264.7 cells
Assay: NO production induced by LPS, NO2- concentration in medium
Type: cell-based, mouse
Conditions: RAW 264.7; 10 μl of 5000 to 50 μM solution per 500 μl well; 12 hours
Description: (1) RAW 264.7 cells (ATCC TIB 71) were suspended in phenol red-free Dulbecco's modified Eagle's medium containing 10% fetal bovine serum (manufactured by Gibco) and 2 mM L-glutamine (manufactured by Life Technologies Oriental, 25030-149) at a concentration of 3×10^5 cells/ml, and 500 μl portions thereof were seeded to respective wells of a 48-well microtiter plate and incubated at 37° C. for 12 hours in the presence of 5% CO2. To each well were added 10 μl of 25 μg/ml lipopolysaccharide (LPS, manufactured by Sigma, L-2012) and 10 μl of aqueous 5000, 1500, 500, 150 or 50 μM agarobiose or neoagarobiose (manufactured by Sigma, G4410) solution, and the plate was incubated for additional 12 hours. Then, concentration of NO2^− produced by oxidation of NO in the medium was measured. As control groups, a group to which LPS was not added and a group to which agarobiose or neoagarobiose was not added were provided.
After incubating as described above, 100 μl of 4% Greece reagent (manufactured by Sigma, G4410) was added to 100 μl of the medium, and the mixture was allowed to stand for 15 minutes at room temperature. Then, the absorbance at 490 nm was measured. NO2^− concentration in the medium was calculated with reference to a calibration curve prepared by using NaNO2 at given concentrations dissolved in the same medium as that described above. All the measurements were carried out in triplicate.
(2) A suspension of 5 g of commercially available agar (Ina agar type S-7, manufactured by Ina Shokuhin Kogyo) in 45 ml of 0.1 N HCl was treated at 95° C. for 13 minutes. After cooling to room temperature, the suspension was neutralized with NaOH and filtered through 0.22 μm MILLEX-GP filter (manufactured by Milipore, SLGPR25LS). […] Namely, 10 μl of 25 μg/ml LPS and 10 μl of a 20-fold dilution of the sample mentioned above were added to wells of a 48 well microtiter plate containing RAW264.7 cells which had been incubated in the wells. The measurement was carried out with the culture medium. As control groups, a group to which LPS was not added, a group to which a sample was not added and a group to which 2.5 mM citric acid was added were provided. All the measurement were carried out in duplicate.

`OC[C@H]1O[C@@H](O[C@H]2[C@H]3OC[C@@H]2OC(O)[C@H]3O)[C@H](O)[C@@H](O)[C@H]1O` (mixture of isomers) [Agarobiose, agarobiose] was tested, and the “inhibition of NO production induced by LPS (in words)” value was “dose-dependently inhibited”.
